One compound from US20080207600A1, “Pharmaceutical Combination for the Treatment of Cns Functional Disorders” (priority 2004, published 2008) can be followed below.

Marks after values point to notes of the source that are not given here.

In the assay the test system is spontaneous motion activity of rats. Put plainly: Depression of spontaneous motion activity (SMA) in "open field" test. It is filed as in vivo. The conditions noted are these: for Spontaneous activity (total values) b) after haloperidol administration: rats, i/p., open field 2 minutes, 10 minutes after administration, M±σ. An excerpt: The presently-known clinical methods of haloperidol administration are: intravenous, intramuscular and oral. […] In theory, it is possible to improve the efficacy of the medicine, to reduce the single-administration dosage (through elimination of the effect of “first passage” through the liver) and to alleviate adverse somatic side effects.
The Applicant used pharmacological combination of intraperitoneally (i/p.) administered haloperidol with nasally applied CO-generating composition.
The experiments were performed on 24 puberty-age white rats (of no particular breed), body mass: 100-120 grams. Depression in SMA of the animals, as produced by i/p. drug administration, was compared with SMA depression produced by i/p. administration combined with nasal administration of CO-generating composition on the basis of a hem-oxygenase enzyme form. SMA of each animal was evaluated as total sum of values obtained within 2 minutes of “open field” test (in terms of the number of poles/supports, number of ring exercises and cleanings), prior to drug administration, and 10 minutes after drug administration.
The experimental animals were subdivided into 4 groups:
Group No. 1: controls (6 animals), no exposure;
Group No. 2: haloperidol (7 animals), i/p., 0.2 mg/kg;
Group No. 3: haloperidol (5 animals), i/p., 0.05 mg/kg;
Group No. 4: haloperidol (6 animals), i/p., 0.05 mg/kg, in pharmacological combination with CO-generating composition.
Haloperidol was administered by i/p. route within the physiological solution; CO-generating composition was administered nasally.

Setting [1] is: preliminary studies, intraperitoneal, 0.2 mg/kg.

Regarding `O=C(CCCN1CCC(O)(c2ccc(Cl)cc2)CC1)c1ccc(F)cc1` [haloperidol], under setting [1], the “Persistence of haloperidol-dependant depression in motive responses” value was 53.5 ± 7.7 min and the “Time to development of haloperidol-dependant depression in motive responses” value amounted to 4.2 ± 1.8 min. Besides, for the setting “0.05 mg/kg”, the “Spontaneous activity (total values) b) after haloperidol administration” value was 24 ± 3**^). Also, the “Spontaneous activity (total values) b) after haloperidol administration” value (0.2 mg/kg) is 3 ± 1*^).
